Values of other authors, collected in US20060051406A1, “Formulation of insoluble small molecule therapeutics in lipid-based carriers” (priority 2004, published 2006).

Conditions: lipid transition temperature (gel to liquid crystalline phase)

SMILES	Tm
CCCCCCCCCCCCCC(=O)OC[C@H](COP(=O)([O-])OCC[N+](C)(C)C)OC(=O)CCCCCCCCCCCCC [Dimyristoylphosphatidylcholine]	23 °C
CCCCCCCC/C=C\CCCCCCCC(=O)OC[C@H](COP(=O)([O-])OCC[N+](C)(C)C)OC(=O)CCCCCCC/C=C\CCCCCCCC [Dioleoylphosphatidylcholine, 1,2-dioleoyl-sn-glycero-3-phosphocholine]	−22 °C
CCCCCCCCCCCCCCCC(=O)OC[C@H](COP(=O)([O-])OCC[N+](C)(C)C)OC(=O)CCCCCCCCCCCCCCC [Dipalmitoylphosphatidylcholine]	41 °C
CCCCCCCCCCCCCCCCCC(=O)OC[C@H](COP(=O)([O-])OCC[N+](C)(C)C)OC(=O)CCCCCCCCCCCCCCCCC [Distearoylphosphatidylcholine]	55 °C
